Test results taken from patent US9067926B2, “Fluoromethyl-5,6-dihydro-4H-[1,3]OXAZINES” (F. Hoffmann-La Roche AG, priority 2012, dated 2015).

Assays:
[1] = target: T1, recombinant human cathepsin E (Homo sapiens, UniProt P14091); assay: Cathepsin E fluorescent substrate kinetic assay; type: biochemical; details: pH 4.5
T1 construct: purchased R&D Systems
T1 sequence (P14091 54-396): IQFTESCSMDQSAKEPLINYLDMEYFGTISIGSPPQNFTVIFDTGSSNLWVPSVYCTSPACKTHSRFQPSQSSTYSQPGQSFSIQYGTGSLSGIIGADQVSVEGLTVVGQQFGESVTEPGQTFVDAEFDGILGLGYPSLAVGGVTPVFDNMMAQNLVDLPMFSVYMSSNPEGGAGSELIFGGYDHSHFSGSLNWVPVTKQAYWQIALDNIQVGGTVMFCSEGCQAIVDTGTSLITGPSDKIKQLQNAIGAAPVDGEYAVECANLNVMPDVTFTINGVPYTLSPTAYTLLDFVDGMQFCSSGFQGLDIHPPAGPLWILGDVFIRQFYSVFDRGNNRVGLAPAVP
From the text: (§1) Cathepsin D and Cathepsin E Fluorescent Substrate Kinetic Assays
(§2) The MR121 fluorescence assays described below are based on the fact that MR121 forms a non-fluorescent ground state complex with tryptophan. In solution this formation occurs at millimolar concentrations of tryptophan. The mechanism can be used to design a generic biochemical assay for proteases. […] In absence of protease activity, the substrates remain intact and the MR121 fluorescence is reduced by the high local Trp-concentration. If the substrates are cleaved by the enzymes the MR121 fluorescence is recovered.
(§3) The fluorescent substrate cathepsin D and cathepsin E kinetic assays were performed at room temperature in 384-well microtiter plates (black with clear flat bottom, non binding surface plates from Corning) in a final volume of 51 μl. The test compounds were serially diluted in DMSO (15 concentrations, 1/3 dilution steps) and 1 μl of diluted compounds were mixed for 10 min with 40 μl of cathepsin D (from human liver, Calbiochem) diluted in assay buffer (100 mM sodium acetate, 0.05% BSA, pH 5.5; final concentration: 200 nM) or with 40 μl of recombinant human cathepsin E (R&D Systems) diluted in assay buffer (100 mM sodium acetate, 0.05% BSA, pH 4.5; final concentration: 0.01 nM). […] The slope in the linear range of the kinetic was calculated and the IC50 of the test compounds were determined using a four parameter equation for curve fitting.

[2] = target: T2, cathepsin D (from human liver) (Homo sapiens, UniProt P07339); assay: Cathepsin D fluorescent substrate kinetic assay; type: biochemical; details: pH 5.5
T2 construct: cathepsin D (from human liver, Calbiochem) diluted in assay buffer; purchased Calbiochem; host or cells: human liver
From the text: as §1, §2, §3

[3] = Detection of glutathione conjugates (GSH); type: in vitro ADME, human; set-up: key: NF = in vitro no adduct formation relative to control; details: in vitro, relative to control
From the text: Detection of Glutathione Conjugates (GSH) The assay conditions for the detection of glutathione conjugates follow the procedure described by C. M. Dieckhaus et al. in Chem. Res. Toxicol. 2005, 18, 630-63.

[4] = target: hERG (Homo sapiens, UniProt Q12809); assay: hERG current measurement (automated patch clamp); type: cell-based
Method: The hERG current measurement was performed at an automated patch clamp system following the procedure described in R. E. Martin et al. in Bio org.

[5] = system: Aβ40 in brain; assay: In vivo inhibition of Aβ40 in brain of wild-type mice; details: Mus musculus, po; 10 mg/kg p.o., brain Aβ40 after 4 h, female C57Bl/6J mice; read-out: in vivo effect, Percentage of control @ 10 mg/kg p.o
Method: In Vivo Experiments. […] The test compound was dissolved in 5% EtOH, 10% Solutol and was applied per os at 10 ml/kg. After 4 h the animals were sacrificed and brain and plasma were collected. The brain was cut into halves and immediately frozen on dry ice. Brain was used for measurement of Aβ40 and plasma was used for determination of compound exposure. […] Brain tissue was homogenized in 2% DEA buffer in a Roche […] (20'', 4000 rpm) and subsequently centrifuged for 1 h at 100'000 g. DEA was reduced to 0.2% in 50 mM NaCl and one half of the DEA lysate was passed over an Oasis Solid Phase extraction plate (Waters; Cat.Nr. 186000679) which had been activated with MeOH and equilibrated in dH2O (1 ml each). After washes in 10% and 30% MeOH (1 ml each) the AP-peptides were eluted in 0.8 ml 2% NH4OH in 90% MeOH. […] Aβ40 was determined by an AlphaLISA assay (Perkin Elmer). In a white 96well half-area microplate (Perkin Elmer Cat.Nr. 6005561), 20 μl of the reconstituted sample were mixed with 5 μl biotinylated BAP-24 (specific for C-terminus of Aβ40 (Brockhaus, M.; Grunberg, J.; Rohrig, S.; Loetscher, H.; Wittenburg, N.; Baumeister, R.; Jacobsen, […]. Caspase-mediated cleavage is not required for the activity of presenilins in amyloidogenesis and NOTCH signaling. […] The mix was incubated for 1 h at RT in the dark. Then 20 μl Streptavin-coated Donor Beads (Perkin Elmer Cat. Nr. 6760002, final dilution 1:125) were added and this final mix was incubated in the dark for another 30 min at r.t. before RFU was measured in an AlphaScreen Reader(Perkin Elmer Envision 2104).

[6] = target: T3, CYP3A4 (Homo sapiens, UniProt P08684); assay: CYP inhibition assay, CYP3A4; type: in vitro ADME; details: pooled human liver microsomes, midazolam substrate; read-out: CYP IC50 3A4
T3 construct: 0.2 mg/ml pooled human liver microsomes; from tissue; host or cells: pooled human liver microsomes
Method: (§4) Inhibition of cytochromes P450 (CYPs) 2C9, 2D6 and 3A4 was assessed using human liver microsomes and CYP-selective substrate metabolism reactions. […] Quenched incubates were stored at −20° C. for at least 1 hour before centrifugation (20,000×g, 20 minutes). Supernatants were removed and diluted 1:1 with water prior to analysis using a RapidFire sample injector system and API4000 mass spectrometer. Peak areas for substrate, metabolite and stable-labelled metabolite standard were determined using MS/MS. The peak area ratios between the metabolite generated by the enzymatic reaction and the internal standard were used in subsequent calculations. The percentage of (DMSO) control activity was calculated for each incubate and IC50 values estimated by non-linear regression. Sulfaphenazole, quinidine or ketoconazole were tested in each CYP2C9, CYP2D6 or CYP3A4 inhibition experiment, respectively, to ensure assay sensitivity and reproducibility.

[7] = target: T4, CYP2D6 (Homo sapiens, UniProt P10635); assay: CYP inhibition assay, CYP2D6; type: in vitro ADME; details: pooled human liver microsomes, dextromethorphan substrate; read-out: CYP IC50 2D6
T4 construct: 0.2 mg/ml pooled human liver microsomes; from tissue; host or cells: pooled human liver microsomes
Method: as §4

[8] = target: T5, CYP2C9 (Homo sapiens, UniProt P11712); assay: CYP inhibition assay, CYP2C9; type: in vitro ADME; details: pooled human liver microsomes, diclofenac substrate; read-out: CYP IC50 2C9
T5 construct: 0.2 mg/ml pooled human liver microsomes; from tissue; host or cells: pooled human liver microsomes
Method: as §4

T2 sequence (P07339 65-412): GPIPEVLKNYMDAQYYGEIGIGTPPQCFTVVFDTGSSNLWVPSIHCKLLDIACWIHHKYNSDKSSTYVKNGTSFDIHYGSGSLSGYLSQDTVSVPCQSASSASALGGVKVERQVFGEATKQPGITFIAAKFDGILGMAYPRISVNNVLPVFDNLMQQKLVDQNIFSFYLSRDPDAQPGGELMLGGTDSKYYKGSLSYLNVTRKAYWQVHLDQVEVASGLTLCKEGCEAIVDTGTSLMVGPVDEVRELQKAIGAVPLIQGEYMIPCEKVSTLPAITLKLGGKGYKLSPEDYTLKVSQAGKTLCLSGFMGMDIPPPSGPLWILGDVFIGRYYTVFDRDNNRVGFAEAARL
Sequence of hERG (Q12809 whole entry): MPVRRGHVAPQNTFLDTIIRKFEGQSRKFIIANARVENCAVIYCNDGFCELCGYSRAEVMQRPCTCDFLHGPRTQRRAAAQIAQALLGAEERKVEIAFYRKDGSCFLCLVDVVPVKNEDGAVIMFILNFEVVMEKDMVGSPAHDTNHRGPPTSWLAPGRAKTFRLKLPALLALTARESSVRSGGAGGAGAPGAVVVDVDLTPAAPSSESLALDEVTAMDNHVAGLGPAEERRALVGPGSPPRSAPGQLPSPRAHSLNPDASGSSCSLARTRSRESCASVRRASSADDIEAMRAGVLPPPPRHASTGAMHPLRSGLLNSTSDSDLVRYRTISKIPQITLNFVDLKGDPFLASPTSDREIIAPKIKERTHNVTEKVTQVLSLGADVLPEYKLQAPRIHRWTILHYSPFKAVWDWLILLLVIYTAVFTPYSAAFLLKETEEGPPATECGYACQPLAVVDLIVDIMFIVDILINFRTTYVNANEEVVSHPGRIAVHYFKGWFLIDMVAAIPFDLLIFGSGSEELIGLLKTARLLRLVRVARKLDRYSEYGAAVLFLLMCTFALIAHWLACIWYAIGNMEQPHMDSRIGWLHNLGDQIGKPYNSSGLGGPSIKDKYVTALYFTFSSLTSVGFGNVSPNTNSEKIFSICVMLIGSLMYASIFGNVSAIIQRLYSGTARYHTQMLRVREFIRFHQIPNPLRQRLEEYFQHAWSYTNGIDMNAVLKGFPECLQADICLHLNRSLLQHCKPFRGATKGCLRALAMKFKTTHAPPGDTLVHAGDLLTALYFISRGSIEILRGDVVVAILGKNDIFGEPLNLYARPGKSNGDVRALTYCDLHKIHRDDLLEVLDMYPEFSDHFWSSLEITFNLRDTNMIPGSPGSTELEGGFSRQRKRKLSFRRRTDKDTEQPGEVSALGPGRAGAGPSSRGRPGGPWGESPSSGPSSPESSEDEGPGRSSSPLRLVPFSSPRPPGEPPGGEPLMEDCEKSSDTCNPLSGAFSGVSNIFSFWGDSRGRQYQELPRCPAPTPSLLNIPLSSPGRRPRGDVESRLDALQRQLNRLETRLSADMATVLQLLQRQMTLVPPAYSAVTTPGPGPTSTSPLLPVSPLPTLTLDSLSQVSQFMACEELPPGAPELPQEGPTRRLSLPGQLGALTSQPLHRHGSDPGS
T3 sequence (P08684 whole entry): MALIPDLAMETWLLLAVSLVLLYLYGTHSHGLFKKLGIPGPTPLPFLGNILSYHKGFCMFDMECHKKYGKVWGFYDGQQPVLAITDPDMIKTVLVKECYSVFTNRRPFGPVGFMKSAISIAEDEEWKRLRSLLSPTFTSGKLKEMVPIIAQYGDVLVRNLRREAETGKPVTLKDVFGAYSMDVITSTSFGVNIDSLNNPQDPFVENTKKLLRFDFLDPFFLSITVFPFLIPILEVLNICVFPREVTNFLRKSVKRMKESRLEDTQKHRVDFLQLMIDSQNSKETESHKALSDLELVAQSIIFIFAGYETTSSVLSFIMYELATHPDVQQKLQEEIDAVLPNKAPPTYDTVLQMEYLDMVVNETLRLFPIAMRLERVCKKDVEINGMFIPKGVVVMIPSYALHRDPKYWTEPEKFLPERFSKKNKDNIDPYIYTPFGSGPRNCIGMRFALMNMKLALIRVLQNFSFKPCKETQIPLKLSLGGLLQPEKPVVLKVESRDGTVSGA
T4 sequence (P10635 whole entry): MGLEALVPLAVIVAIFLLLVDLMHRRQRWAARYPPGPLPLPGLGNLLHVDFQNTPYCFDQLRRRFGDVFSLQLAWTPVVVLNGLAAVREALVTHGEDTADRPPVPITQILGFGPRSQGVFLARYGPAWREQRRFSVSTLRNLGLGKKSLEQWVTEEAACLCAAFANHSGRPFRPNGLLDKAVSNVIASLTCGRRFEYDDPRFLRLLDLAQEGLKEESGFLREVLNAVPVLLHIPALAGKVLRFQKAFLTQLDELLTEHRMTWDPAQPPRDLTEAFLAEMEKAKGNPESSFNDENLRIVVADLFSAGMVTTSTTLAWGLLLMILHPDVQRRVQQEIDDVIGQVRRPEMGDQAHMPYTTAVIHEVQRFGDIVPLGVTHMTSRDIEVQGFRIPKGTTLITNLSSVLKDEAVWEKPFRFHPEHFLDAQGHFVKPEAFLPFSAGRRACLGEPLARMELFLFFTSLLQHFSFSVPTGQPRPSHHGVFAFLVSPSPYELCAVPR
T5 sequence (P11712 whole entry): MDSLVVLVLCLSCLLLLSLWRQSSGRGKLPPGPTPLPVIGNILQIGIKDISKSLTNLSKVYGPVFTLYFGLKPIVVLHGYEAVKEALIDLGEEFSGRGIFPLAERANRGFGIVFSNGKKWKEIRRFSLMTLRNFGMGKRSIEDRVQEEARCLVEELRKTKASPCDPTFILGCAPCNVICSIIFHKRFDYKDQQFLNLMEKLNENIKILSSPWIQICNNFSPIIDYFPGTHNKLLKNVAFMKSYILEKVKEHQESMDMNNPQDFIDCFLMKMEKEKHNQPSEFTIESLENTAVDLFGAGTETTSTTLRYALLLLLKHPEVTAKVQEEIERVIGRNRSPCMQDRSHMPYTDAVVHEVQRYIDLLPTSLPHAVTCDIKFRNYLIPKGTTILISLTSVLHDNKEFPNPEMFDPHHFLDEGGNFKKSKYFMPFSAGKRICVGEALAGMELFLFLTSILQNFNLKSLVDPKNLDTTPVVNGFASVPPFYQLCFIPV

IC50 [1] | IC50 [2] | GSH human (glutathione adduct formation) [3] | IC50 [6] | IC50 [7] | IC50 [8] | SMILES | hERG Inhibition @ 10 μM [4] | response vs control in vivo at 10 mg/kg [5]
> 200 µM | > 200 µM |  |  |  |  | N#Cc1ccc(C(=O)Nc2ccc(F)c([C@]3(CF)C[C@@H](C(F)(F)F)OC(N)=N3)c2)nc1 [Example 3, N-(3-((4S,6S)-2-amino-4-(fluoromethyl)-6-(trifluoromethyl)-5,6-dihydro-4H-1,3-oxazin-4-yl)-4-fluorophenyl)-5-cyanopicolinamide] |  | 
> 200 µM | > 200 µM | NF | > 50 µM | 16 µM | > 50 µM | COc1cnc(C(=O)Nc2ccc(F)c([C@]3(CF)C[C@@H](C(F)(F)F)OC(N)=N3)c2)cn1 [Example 36, N-(3-((4S,6S)-2-Amino-4-(fluoromethyl)-6-(trifluoromethyl)-5,6-dihydro-4H-1,3-oxazin-4-yl)-4-fluorophenyl)-5-methoxypyrazine-2-carboxamide] | 7 | 88%
> 200 µM | > 200 µM | NF | > 50 µM | 24 µM | > 50 µM | NC1=N[C@](CF)(c2cc(NC(=O)c3nn(C(F)F)cc3Cl)ccc2F)C[C@@H](C(F)(F)F)O1 [Example 46, N-(3-((4S,6S)-2-Amino-4-(fluoromethyl)-6-(trifluoromethyl)-5,6-dihydro-4H-1,3-oxazin-4-yl)-4-fluorophenyl)-4-chloro-1-(difluoromethyl)-1H-pyrazole-3-carboxamide] | 8 | 61%
